Reference: patent US20210054028A1, “BACTERIAL SIDEROPHORE GRAMIBACTIN” (Leibniz-Institut für Naturstoff-Forschung und …, priority 2017, published 2021)
“Also recorded” adds a separate entry of the source. *1 amine or outer side, *2 acyl side, *3 side chain or, on linkers, in order; H or OH if unused. Where a SMILES comes first, the peptide text is derived from it. Bridges are numbered along the chain shown (N, C = ends). [ ]: non-standard residue; d: D form. The star is where a group is joined. dAsp(3R-OH) = N[C@@H](C(=O)O)[C@@H](O)C(=O)O; X1 = O=NN(O)CCC[C@@H](N[*:1])C(=O)[*:2]; d(aThr) = C[C@@H](O)[C@@H](N)C(=O)O; Octanoyl = CCCCCCCC(=O)*

Assays:
[1] = tested on: corn plants; assay: Chlorophyll content determination in hydroponically grown corn plants; format: in vivo, Zea mays L. ssp. saccharata; conditions: 50 μM in nutrient solution; 21 d hydroponic growth; 3rd leaf
Description: Corn plants were grown in nutrient solutions deficient in iron, or supplementing either Fe-EDTA (positive control) or Fe-gramibactin. Solvent and metal-free chelators were used as negative controls. As readout for iron uptake we measured the chlorophyll content of youngest leaves, since chlorophyll biosynthesis is strongly dependent on iron availability (11).
Seeds from maize (Zea mays L. ssp. saccharata) were commercially acquired (Kiepenkerl) and surface sterilized in 4.5% (v/v) sodium hypochlorite for 10 minutes and subsequently rinsed 5 times with 50 mL sterile distilled water. Seeds were germinated in rolled filter papers soaked with sat. CaSO4 solution for 3 d in at 30° C. in the dark. […]
Plants were grown hydroponically for 21 days using the above described adjusted nutrient solution. […] The last developed leaf of each plant (3rd leaf) was removed, and fresh weight was determined. […] The residue was dissolved in 1 mL methanol and 1:10 or 1:20 dilutions with methanol were analysed spectrophotometrically using a Shimadzu UV-1800 spectrophotometer. Samples were measured at 25° C. using discardable plastic cuvettes (d=1 cm). […] Chlorophyll contents were calculated using the equations developed by Wellburn.

[2] = Potentiometric and spectrophotometric titrations of the gramibactin/Fe3+ system with EDTA as competitive chelating agent; format: physicochemical; conditions: I=0.1 M KCl
From the text: (§1) To evaluate the actual strength of the siderophore, we conducted potentiometric and spectrophotometric titrations to evaluate the acid/base behavior of gramibactin and to determine the complex formation constant of the iron complex (FIG. 2C). […] It thus appeared conceivable that the rhizosphere bacteria excrete the metal chelator to provide the host plant with iron.
(§2) Potentiometric ligand competition measurements and calculations have been performed as reported (11) at l=0.1 M in KCl(aq) and at T=25.0±0.1° C., using a Mettler Toledo DL50 apparatus, equipped with a Schott Instruments N6180 combined glass electrode, controlled by LabX light v1.05 software. The titrand solutions consisted in gramibactin (from 0.7 mm to 1 mm), EDTA (as disodium salt) and Fe^3+ (as FeCl3) in different gramibactin:Fe^3+:EDTA ratios, with slight known excess of HCl.
(§3) This can be explained by a buffering effect of the two N-nitroso-hydroxylamine moieties. […]
(§4) Titrations were carried out at 0.1 m in KCl(aq) and T=25.0±0.1° C. in a glass cuvette (d=10.00 mm) placed in the spectrometer equipped with a thermostated cell holder. The pH was read out by using a inoLab pH 7110 with a combination electrode (SI analytics, ScienceLine Type N 6000 A). […] UV/Vis-spectra were recorded after every addition of KOH(aq) followed by magnetic stirring (FIG. 12).

[3] = tested on: extracted proteins from corn roots; assay: In vitro NO release assay with 2,3-diaminonaphthalene probe; format: biochemical, Zea mays L. ssp. saccharata; conditions: 2 mM test substance, 1.2 mM H2O2, 0.2 mM DAN, root proteins, 20 min, pH 6
Description: To probe the proposed enzymatic NO release in vitro, we extracted soluble proteins from ground root tissue of hydroponically grown plants into phosphate buffer. To monitor the liberation of NO in the in vitro enzyme assay, we used 2,3-diaminonaphthalene (DAN) as a reporter. Nitric oxide reacts with this chemical probe to form the 2,3-napthotriazole, and its strong fluorescence can be readily measured using a microplate reader. Extracted root proteins were incubated with the probe, hydrogen peroxide and either Fe-gramibactin or the iron-free ligand, using heat-inactivated proteins as negative control. […] Thus, gramibactin represents a novel NO donor.
One-week-old plants were harvested and the roots were rinsed with distilled water. After separating the roots from the shoot, the root tissue was frozen using liquid nitrogen and grounded with mortar and pestle. The plant material was then extracted using 1 mL 66 mm NaH2PO4 buffer (pH 6). The extract was centrifuged to remove remaining plant material, and 20 μL of the supernatant were used for in vitro assays. […] Fluorescence was measured using a Varioskan LUX (Thermo Scientific) microplate reader (IEx.=375 nm, IEm.=415 nm). Fluorescence values were normalized to the sample with the highest fluorescence. Every assay was performed in triplicates and every replicate was measured three times, and the mean of all these replicates was plotted. […]

[4] = tested on: corn roots; assay: In planta NO release assay with DAF-2DA, fluorescence microscopy; format: in vivo, Zea mays L. ssp. saccharata; conditions: 100 μM; 1.5-2 h after loading with 10 μM DAF-2DA
Description: To verify the postulated NO release in planta we treated fresh corn seedlings with diaminofluoresceine-2-diacetate (DAF-2DA), a cell-permeable probe that captures NO with formation of a highly fluorescent triazole. After loading maize roots with the chemical probe they were incubated with negative controls, gramibactin, or Fe-gramibactin, then cut and inspected by fluorescence microscopy. […] Thus, NO is in fact liberated from gramibactin in the plant tissue. A weak signal was also detectable in the root treated with the Fe-gramibactin complex. This finding is important as it confirms that iron is removed from gramibactin in vivo, thus providing free ligands that can subsequently release nitric oxide. Finally, fluorescence microscopy also allowed localizing NO, which is apparently released into the intracellular space. This observation is plausible as peroxidases, which are required for NO release, are typically located in the cell membrane.
Young seedlings (2-3 days old) were placed in a vial containing 4 mL standard nutrient solution (see above) with 10 μm 4,5-diaminofluorescein diacetate and incubated at room temperature for 30 min. Seedlings were then removed, and the root was rinsed with deionized water before placing them in nutrient solution containing 100 μm gramibactin, 100 μm Fe-gramibactin or no additive (control). […]

[5] = Acid/base titration and speciation of gramibactin; format: physicochemical; conditions: physiological pH; I=0.1 M KCl; 25 °C
From the text: as §1, §2, §3, §4

SMILES: O=C([O-])CN(CCN(CC(=O)[O-])CC(=O)[O-])CC(=O)[O-].[Fe+3] [Fe-EDTA]
- higher total chlorophyll content versus iron-free cultured plants [1]: 50%

SMILES: CCCCCCCC(=O)N[C@@H](C(=O)N[C@@H]1C(=O)N[C@H]([C@@H](C)O)C(=O)N[C@H](CCCN(O)N=O)C(=O)NCC(=O)N[C@H](CCCN(O)N=O)C(=O)O[C@@H]1C)[C@@H](O)C(=O)O [gramibactin] (Octanoyl-[dAsp(3R-OH)]T[d(aThr)][X1]G[X1]; ester 2-C)
- log □ (complex formation constant of the iron complex) ([2]; disodium EDTA as competitive chelating agent, T=25.0±0.1 °C): 27.6±0.1
- protons released upon metal complexation ([2]; potentiometric titration, gramibactin:Fe3+ 1:1, 25 °C): four
- fluorescence of 2,3-naphthotriazole (NO release) [3]: drastically increased fluorescence; also recorded: liberates NO
- DAF-2T fluorescence signal in root cross sections (NO release in planta) [4]: strong signal; also recorded: liberates NO
- protonation state of graminine residues (speciation diagram) [5]: both graminine residues are deprotonated at physiological pH
